Reference: patent publication US10711006B2, “Selective Bruton's tyrosine kinase inhibitor and use thereof” (HANGZHOU HERTZ PHARMACEUTICAL CO., LTD., priority 2016, dated 2020)

Key:
[1] = system: Mino subcutaneous xenograft tumor; test: In-vivo pharmacodynamic study on Mino subcutaneous xenograft tumor models; details: CB17 SCID mice, intragastric, twice a day
Description: In CB17 SCID mice, 0.2 mL of cell suspension containing 5×10^6 Mino cells was subcutaneously inoculated into the right back of each mouse, and when the mean tumor volume reaches approximately 139.94 mm3 (day 26 after inoculation), group administration was started (intragastric administration, twice a day, 14 days in total). Animals were monitored daily for health and mortality, and tumor diameters were measured twice a week using vernier calipers to see if tumor growth could be inhibited, delayed, or cured.

[2] = target: JAK3 (Homo sapiens (Human), UniProt P52333); test: Kinase selectivity experiment, JAK3; assay type: biochemical; details: read-out: Inhibitory activity against JAK3 (IC50)
Description: (§1) A 1× kinase base buffer and a reaction stop buffer for respective kinases in the experiment were prepared as required.
(§2) Preparation of Compounds to be Tested:
(§3) 2) diluting each compound at a 5-fold concentration gradient in a 96-well plate to 6 to 7 concentrations and ensuring that the drug volume in each well was 10 μl; and at the same time adding 100 μl of DMSO to prepare a blank control group and also preparing a negative control group without the enzyme substrate; and
(§4) 3) preparing another 96-well plate, adding 10 μl of each of the above compounds to 90 μl of the 1× kinase base buffer and mixing for 10 minutes to be uniform.
(§5) Preparation of the Plate to be Tested:
(§6) 1) 5 μl of the mixed solution prepared as above in the 96-well plate was taken and transferred to a 384-well plate, with two replicate wells for each compound.
(§7) 1) Preparing a 2.5× kinase solution and adding a corresponding 1× kinase base buffer;
(§8) 2) preparing a 2.5× polypeptide solution and adding FAM-labeled polypeptide and ATP in the 1× kinase base buffer; and
(§9) 3) adding 10 μl of 2.5× kinase solution to a 384-well plate to be tested, placing in a room-temperature environment for 10 minutes, and then adding 10 μl of the 2.5× polypeptide solution, reacting at 28° C. for 1 hour, and then adding 25 μl of a reaction stop buffer.
(§10) The Caliper program reads the plate and uses the data to obtain the IC50 values of the corresponding compounds against kinases.

[3] = system: human lung cancer cell (A549); test: In-vitro tumor cell proliferation inhibition (CCK-8), A549; details: A549, 72 h, read-out: Tumor cell proliferation inhibitory activity (IC50, μM) A549
Description: (§11) The in-vitro antitumor activity assay was carried out on the synthesized compound by using different solid tumors and leukemia cell lines:
(§12) Cell lines: human lung cancer cell (A549), human mantle cell lymphoma (MINO), diffuse giant B-cell lymphoma (OCI-LY10), and human diffuse large B lymphoma (TMD-8).
(§13) Preparation method of the drug: the drug was dissolved in DMSO to make a 10 mM stock solution, and then the stock solution was diluted in a certain ratio to obtain 5 different concentrations (test concentration 100×). In-vitro culture of tumor cells:
(§14) The tumor cells A549, MINO, OCI-LY10, and TMD-8 were seeded in a 96-well plate at 4000 cells/200 μL/well and then incubated overnight at 37° C. in a 5% CO2 cell culture incubator. 2 μL of the compound was added to each well to final concentrations of 50 μM, 10 μM, 2 μM, 0.4 μM, and 0.08 μM and then incubated for 72 hours at 37° C. in a 5% CO2 cell incubator, with DMSO (2%) as a control group. […] Wells loaded with the corresponding amount of cell culture fluid the and CCK-8 solution but no cells were considered as blank controls. The absorbance (OD value) was measured at 450 nm using a microplate reader, and the obtained data was used to calculate IC50.

[4] = system: human mantle cell lymphoma (MINO); test: In-vitro tumor cell proliferation inhibition (CCK-8), MINO; details: 72 h, read-out: Tumor cell proliferation inhibitory activity (IC50, μM) MINO
Description: as §11, §12, §13, §14

[5] = target: HCK (Homo sapiens (Human), UniProt P08631); test: Kinase selectivity experiment, HCK; assay type: biochemical; details: read-out: Inhibitory activity against HCK (IC50)
Description: as §1, §2, §3, §4, §5, §6, §7, §8, §9, §10

[6] = target: CSK (Homo sapiens (Human), UniProt P41240); test: Kinase selectivity experiment, CSK; assay type: biochemical; details: read-out: Inhibitory activity against CSK (IC50)
Description: as §1, §2, §3, §4, §5, §6, §7, §8, §9, §10

[7] = target: FLT3 (Homo sapiens (Human), UniProt P36888); test: Kinase selectivity experiment, FLT3; assay type: biochemical; details: read-out: Inhibitory activity against FLT3 (IC50)
Description: as §1, §2, §3, §4, §5, §6, §7, §8, §9, §10

[8] = target: ITK (Homo sapiens (Human), UniProt Q08881); test: Kinase selectivity experiment, ITK; assay type: biochemical; details: read-out: Inhibitory activity against ITK (IC50)
Description: as §1, §2, §3, §4, §5, §6, §7, §8, §9, §10

[9] = system: arthritis induced by anti-collagen antibodies and lipopolysaccharides; test: Rheumatoid arthritis model induced by anti-collagen antibodies and lipopolysaccharides; assay type: in vivo, Balb/c mice
Description: In Balb/c mice, arthritis was induced by administration of anti-collagen antibodies and lipopolysaccharides (Nandakumar et al., Am. J. Pathol. 2003, 163: 1827-1837).
The specific method was as follows: On Day 0, female Balb/c mice were intravenously injected with anti-type II collagen ChemicomAb mixture in a dose of 100 mg/kg, and on Day 1, lipopolysaccharide was intraperitoneally injected in a dose of 1.25 mg/kg. From Day 2 to Day 12, Compounds 15a, 17a, 24a and 24e were orally administered once a day in a dose of 10 mg/kg. On Day 13 after abdominal anesthesia, […] of blood was taken from the femoral artery and centrifuged at 3000 r/min for 20 minutes, serum was taken to detect IL-1β with a test kit, and related tissue samples were observed.

[10] = target: FGR (Homo sapiens (Human), UniProt P09769); test: Kinase selectivity experiment, FGR; assay type: biochemical; details: read-out: Inhibitory activity against FGR (IC50)
Description: as §1, §2, §3, §4, §5, §6, §7, §8, §9, §10

[11] = target: BLK (Homo sapiens (Human), UniProt P51451); test: Kinase selectivity experiment, BLK; assay type: biochemical; details: read-out: Inhibitory activity against BLK (IC50)
Description: as §1, §2, §3, §4, §5, §6, §7, §8, §9, §10

[12] = system: diffuse giant B-cell lymphoma (OCI-LY10); test: In-vitro tumor cell proliferation inhibition (CCK-8), OCI-LY10; details: Homo sapiens, OCI-Ly10, 72 h, read-out: Tumor cell proliferation inhibitory activity (IC50, nM) OCI-LY10
Description: as §11, §12, §13, §14

[13] = system: human diffuse large B lymphoma (TMD-8); test: In-vitro tumor cell proliferation inhibition (CCK-8), TMD-8; details: TMD8, 72 h, read-out: Tumor cell proliferation inhibitory activity (IC50, nM) TMD-8
[14] = target: hERG potassium channel (Homo sapiens (Human), UniProt Q12809); test: hERG potassium channel inhibitory activity, manual patch clamp in CHO cells; assay type: cell-based; details: CHO cells stably expressing hERG, whole-cell patch clamp
Description: The cells used in this experiment were CHO cell lines transfected with HergCdna and stably expressing Herg channels (supplied by Sophion Bioscience, Denmark). The cells were cultured in a medium containing the following components (all from Invitrogen): Ham's F12 medium, 10% (v/v) inactivated fetal bovine serum, 100 μg/ml hygromycin B, 100 μg/ml Geneticin. […] 24 to 48 hours before an electrophysiological experiment, CHO Herg cells were transferred to circular slides placed in the culture dishes and grow with the same culture liquid under the same culture conditions as above. The density of CHO Herg cells on each circular slide was required to reach such a value that most cells were independent and stand alone.
2. Treatment and Dilution of a Compound
Before the test, the compound was first diluted with DMSO at gradient to make stock solutions with concentrations of 10, 3, 1, 0.3 and 0.1 Mm and the stock solutions were then diluted with extracellular fluid to a final Mm test concentration. Except that the DMSO concentration in the 30 Mm compound test solution was 0.3%, the final concentration of DMSO in each of the compound solutions with other concentrations was 0.1%. The test concentration of a positive control Cisapridewas 0.1 Mm. All compound solutions were conventionally sonicated and shaken for 5 to 10 minutes to ensure complete dissolution of the compound.
3. Electrophysiological Recording System and Data Analysis
This experiment uses a manual patch clamp system (HEKA EPC-10 signal amplifier and digital conversion system, purchased from HEKA Electronics, Germany) for the recording of whole cell currents. The circular slides with CHO Herg cells growing on the surfaces were placed in an electrophysiological recording slot under an inverted microscope. The extracellular fluid was used for continuous perfusion in the recording slot (approximately lml per minute). The experimental procedure uses a conventional whole-cell patch clamp current recording technique. Unless otherwise stated, the experiment was carried out at regular room temperature ([…]). The cells were clamped at a voltage of −80 Mv. The cell clamp voltage was depolarized to +20 Mv to activate the Herg potassium channel, and 5 seconds later, it was clamped to −50 Mv to eliminate inactivation and generate tail current. The peak of the tail current was used as the value of the Herg current. After the hERG potassium current recorded in the above step was stabilized under the continuous extracellular fluid perfusion in the recording slot, the drug to be tested can be superimposed to the perfusion until the inhibitory effect of the drug on the hERG current reaches a steady state. Generally, the criterion for determine whether or not the stable state was reached was that the recent three consecutive current recording lines were coincident. After the steady state was reached, extracellular fluid perfusion was carried out for flushing until the hERG current returns to the magnitude before the drug was added. One cell may be used for testing one or more drugs, or multiple concentrations of the same drug, and flushing with extracellular fluid was carried out between tests of different drugs. Cisapride (purchased from Sigma) was used in the experiment as a positive control to ensure that the cells used were of normal quality. The test data was analyzed by data analysis software provided by HEKA Patchmaster, Microsoft Excel and Graphpad Prism.

Sequence of hERG potassium channel (Q12809 whole entry): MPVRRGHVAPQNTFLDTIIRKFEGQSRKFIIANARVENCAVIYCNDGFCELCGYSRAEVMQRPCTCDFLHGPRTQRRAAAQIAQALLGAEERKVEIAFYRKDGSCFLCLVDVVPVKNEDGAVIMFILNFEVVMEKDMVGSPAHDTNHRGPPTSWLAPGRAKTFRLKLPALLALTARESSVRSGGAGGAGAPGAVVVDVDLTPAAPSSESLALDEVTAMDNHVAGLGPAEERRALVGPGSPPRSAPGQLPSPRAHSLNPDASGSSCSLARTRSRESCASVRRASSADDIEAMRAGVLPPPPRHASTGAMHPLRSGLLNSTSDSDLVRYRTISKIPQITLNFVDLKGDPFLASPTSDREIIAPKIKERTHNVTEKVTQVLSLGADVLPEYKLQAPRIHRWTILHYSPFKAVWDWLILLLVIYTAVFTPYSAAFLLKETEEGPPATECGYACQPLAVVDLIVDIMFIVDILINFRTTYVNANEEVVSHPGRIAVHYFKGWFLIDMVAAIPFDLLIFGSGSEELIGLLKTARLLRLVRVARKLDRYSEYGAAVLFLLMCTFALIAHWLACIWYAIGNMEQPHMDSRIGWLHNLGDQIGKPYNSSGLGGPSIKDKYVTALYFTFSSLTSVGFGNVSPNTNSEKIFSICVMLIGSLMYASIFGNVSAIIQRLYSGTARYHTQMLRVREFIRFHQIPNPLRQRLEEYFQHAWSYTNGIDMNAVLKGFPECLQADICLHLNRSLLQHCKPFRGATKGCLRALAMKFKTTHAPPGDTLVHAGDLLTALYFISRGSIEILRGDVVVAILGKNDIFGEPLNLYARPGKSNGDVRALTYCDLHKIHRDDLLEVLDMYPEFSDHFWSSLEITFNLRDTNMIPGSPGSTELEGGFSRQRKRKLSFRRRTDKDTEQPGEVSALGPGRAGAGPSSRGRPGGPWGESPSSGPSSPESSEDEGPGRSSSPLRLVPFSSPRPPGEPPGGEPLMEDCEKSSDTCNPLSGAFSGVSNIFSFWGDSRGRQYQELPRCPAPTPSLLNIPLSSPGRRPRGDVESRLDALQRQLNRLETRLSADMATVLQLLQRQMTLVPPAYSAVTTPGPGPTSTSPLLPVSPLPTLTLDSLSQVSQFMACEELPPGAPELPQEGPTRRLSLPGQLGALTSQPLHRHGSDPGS
Sequence of BLK (P51451 whole entry, species assumed): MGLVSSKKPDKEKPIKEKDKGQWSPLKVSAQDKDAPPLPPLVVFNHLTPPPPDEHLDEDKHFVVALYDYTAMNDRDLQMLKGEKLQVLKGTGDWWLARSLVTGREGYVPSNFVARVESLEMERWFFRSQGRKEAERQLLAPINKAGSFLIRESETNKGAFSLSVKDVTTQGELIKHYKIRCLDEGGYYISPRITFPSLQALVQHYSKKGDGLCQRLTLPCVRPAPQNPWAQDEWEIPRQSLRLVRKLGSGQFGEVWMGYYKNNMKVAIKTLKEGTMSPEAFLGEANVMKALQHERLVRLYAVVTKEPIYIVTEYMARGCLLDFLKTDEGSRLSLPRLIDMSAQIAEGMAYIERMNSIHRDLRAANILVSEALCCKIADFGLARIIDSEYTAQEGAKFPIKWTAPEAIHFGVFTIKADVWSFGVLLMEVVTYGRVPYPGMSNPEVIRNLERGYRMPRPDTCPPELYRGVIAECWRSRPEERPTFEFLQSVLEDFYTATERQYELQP
Sequence of FLT3 (P36888 27-993, species assumed): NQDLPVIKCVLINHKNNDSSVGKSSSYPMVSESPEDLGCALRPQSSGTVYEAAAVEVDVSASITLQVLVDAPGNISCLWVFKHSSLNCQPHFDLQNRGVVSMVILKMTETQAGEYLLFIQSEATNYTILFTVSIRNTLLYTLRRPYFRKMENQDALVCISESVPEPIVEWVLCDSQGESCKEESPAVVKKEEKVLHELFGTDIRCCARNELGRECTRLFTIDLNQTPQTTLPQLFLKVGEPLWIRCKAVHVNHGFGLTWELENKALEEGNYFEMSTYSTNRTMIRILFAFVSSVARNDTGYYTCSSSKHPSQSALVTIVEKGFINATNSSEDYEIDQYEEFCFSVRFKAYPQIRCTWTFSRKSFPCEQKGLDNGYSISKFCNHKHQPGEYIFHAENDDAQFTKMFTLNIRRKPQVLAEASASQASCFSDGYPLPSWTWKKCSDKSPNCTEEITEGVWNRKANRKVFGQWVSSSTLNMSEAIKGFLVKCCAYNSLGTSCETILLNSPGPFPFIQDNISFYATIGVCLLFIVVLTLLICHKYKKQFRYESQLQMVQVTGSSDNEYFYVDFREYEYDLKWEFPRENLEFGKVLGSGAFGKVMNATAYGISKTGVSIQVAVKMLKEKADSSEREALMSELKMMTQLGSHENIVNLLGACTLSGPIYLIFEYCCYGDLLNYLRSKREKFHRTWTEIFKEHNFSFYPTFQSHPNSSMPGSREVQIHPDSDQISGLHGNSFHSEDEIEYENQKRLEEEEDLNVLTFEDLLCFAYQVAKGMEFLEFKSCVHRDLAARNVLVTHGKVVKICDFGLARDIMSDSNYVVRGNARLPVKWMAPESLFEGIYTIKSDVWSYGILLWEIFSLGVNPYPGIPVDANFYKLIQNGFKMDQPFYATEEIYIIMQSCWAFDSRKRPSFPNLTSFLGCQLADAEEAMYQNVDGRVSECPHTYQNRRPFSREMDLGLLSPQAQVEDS
Sequence of JAK3 (P52333 whole entry, species assumed): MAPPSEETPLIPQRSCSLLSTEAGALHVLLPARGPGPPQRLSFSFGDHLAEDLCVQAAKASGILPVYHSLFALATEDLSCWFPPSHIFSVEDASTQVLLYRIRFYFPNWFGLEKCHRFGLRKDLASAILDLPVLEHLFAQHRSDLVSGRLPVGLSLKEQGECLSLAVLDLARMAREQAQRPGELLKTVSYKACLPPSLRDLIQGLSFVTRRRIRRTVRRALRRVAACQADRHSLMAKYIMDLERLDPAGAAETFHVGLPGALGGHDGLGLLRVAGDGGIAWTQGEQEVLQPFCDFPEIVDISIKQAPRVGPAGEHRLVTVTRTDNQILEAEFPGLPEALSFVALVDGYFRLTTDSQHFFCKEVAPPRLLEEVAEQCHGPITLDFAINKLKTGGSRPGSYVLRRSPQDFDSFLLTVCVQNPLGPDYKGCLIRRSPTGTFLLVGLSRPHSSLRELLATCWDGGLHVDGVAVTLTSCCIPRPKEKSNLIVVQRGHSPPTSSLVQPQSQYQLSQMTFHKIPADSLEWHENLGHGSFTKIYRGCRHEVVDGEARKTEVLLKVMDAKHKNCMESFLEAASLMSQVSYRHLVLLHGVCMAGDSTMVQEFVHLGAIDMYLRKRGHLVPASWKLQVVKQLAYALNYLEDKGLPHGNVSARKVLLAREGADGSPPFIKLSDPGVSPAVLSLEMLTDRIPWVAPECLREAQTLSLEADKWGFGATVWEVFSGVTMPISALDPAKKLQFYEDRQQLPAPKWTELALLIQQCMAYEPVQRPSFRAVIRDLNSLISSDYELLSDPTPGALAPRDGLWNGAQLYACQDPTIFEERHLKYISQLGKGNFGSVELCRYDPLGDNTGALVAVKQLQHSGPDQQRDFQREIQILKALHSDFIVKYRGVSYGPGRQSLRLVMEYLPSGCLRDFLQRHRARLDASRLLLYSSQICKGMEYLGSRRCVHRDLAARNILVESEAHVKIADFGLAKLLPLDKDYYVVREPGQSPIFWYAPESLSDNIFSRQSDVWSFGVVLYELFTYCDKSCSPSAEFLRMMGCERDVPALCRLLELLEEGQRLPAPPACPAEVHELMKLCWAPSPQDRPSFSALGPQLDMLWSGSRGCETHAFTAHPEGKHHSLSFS
Sequence of FGR (P09769 whole entry, species assumed): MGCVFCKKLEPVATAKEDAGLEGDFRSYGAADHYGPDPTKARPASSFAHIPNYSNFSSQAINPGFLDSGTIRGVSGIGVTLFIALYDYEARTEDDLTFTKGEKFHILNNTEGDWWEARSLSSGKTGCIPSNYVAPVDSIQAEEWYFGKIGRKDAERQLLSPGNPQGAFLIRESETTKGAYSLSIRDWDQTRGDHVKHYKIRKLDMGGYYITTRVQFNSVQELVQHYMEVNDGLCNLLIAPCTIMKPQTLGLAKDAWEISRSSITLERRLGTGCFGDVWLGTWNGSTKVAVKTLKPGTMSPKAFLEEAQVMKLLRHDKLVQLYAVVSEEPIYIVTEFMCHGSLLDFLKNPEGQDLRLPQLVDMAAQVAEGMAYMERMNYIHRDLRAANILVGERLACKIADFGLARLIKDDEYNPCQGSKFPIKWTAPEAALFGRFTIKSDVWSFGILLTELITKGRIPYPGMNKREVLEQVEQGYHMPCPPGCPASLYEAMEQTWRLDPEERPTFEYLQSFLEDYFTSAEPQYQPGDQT
Sequence of ITK (Q08881 whole entry, species assumed): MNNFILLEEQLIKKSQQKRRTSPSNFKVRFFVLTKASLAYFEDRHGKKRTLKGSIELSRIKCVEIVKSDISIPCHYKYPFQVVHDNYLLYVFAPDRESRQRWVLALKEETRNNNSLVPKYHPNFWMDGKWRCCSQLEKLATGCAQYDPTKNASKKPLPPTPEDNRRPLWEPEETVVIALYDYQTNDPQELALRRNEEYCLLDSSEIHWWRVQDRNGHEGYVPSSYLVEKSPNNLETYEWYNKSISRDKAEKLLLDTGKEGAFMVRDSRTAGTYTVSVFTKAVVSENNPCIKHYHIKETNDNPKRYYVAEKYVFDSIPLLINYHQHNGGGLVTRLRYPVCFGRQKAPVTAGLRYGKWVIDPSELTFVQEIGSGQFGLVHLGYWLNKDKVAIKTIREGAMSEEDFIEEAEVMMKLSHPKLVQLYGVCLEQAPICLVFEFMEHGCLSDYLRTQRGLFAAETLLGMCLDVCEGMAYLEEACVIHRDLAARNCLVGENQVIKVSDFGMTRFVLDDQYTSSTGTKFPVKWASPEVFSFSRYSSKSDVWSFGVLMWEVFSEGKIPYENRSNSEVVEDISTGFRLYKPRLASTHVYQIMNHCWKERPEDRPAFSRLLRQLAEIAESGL

IC50 [2]: > 1000 nM
IC50 [3]: 1.67 µM
IC50 [4]: 8.62 µM
IC50 [5]: > 1000 nM
IC50 [6]: > 1000 nM
IC50 [7]: > 1000 nM
IC50 [8]: > 1000 nM
IC50 [10]: > 1000 nM
IC50 [11]: 11 nM
IC50 [12]: 1.41 nM
IC50 [13]: 5.57 nM
Compound: C=CC(=O)N1CCC[C@@H](n2nc(-c3ccc(Oc4ccccc4)nc3F)c3c(N)ncnc32)C1 [Compound 17a, (R)-1-(3-(4-amino-3-(2-fluoro-6-phenoxypyridin-3-yl)-1H-pyrazolo[3,4-d]pyrimidin-1-yl)piperidin-1-yl)prop-2-en-1-one]
TGI*(14 days) (%) calculated on the basis of tumor volume [1]: 82.54%
TGI**(14 days) (%) calculated on the basis of tumor weight [1]: 74.05%
level of IL-1β in serum (in words) ([9]; 10 mg/kg orally once a day, versus model group): significantly reduce
IL-1β ([9]; serum on Day 13, 10 mg/kg orally once a day Day 2 to Day 12): 17.25 ± 3.9 ng/L
inflammatory cell infiltration, synovial hyperplasia, inflammatory granulation tissue formation, necrotic tissue ([9]; tissue samples after treatment, versus model group): significantly improved
IC50 [14]: 7800 nM
